# Laboratory results from US20120289612A1, “Composite Material and Method for Producing the Same” (HOUSE FOODS CORPORATION, priority 2010, published 2012).
# Test system: acylase
# Test: Enzyme addition: decomposition of capsaicin by acylase, HPLC
# Type: physicochemical
# Settings: acylase 0.05 u/ml, 50 mM tris buffer, 37° C., capsaicin 0.0028%, relative to beginning of shaking
# Procedure: Each of the samples obtained in Reference Example 2 and Reference Comparative Example 2 was diluted 10-fold with a 50 mM tris buffer (capsaicin concentration: 0.0028%). To this liquid, an acylase was added at a concentration of 0.05 u/ml. The mixture was shaken in a constant-temperature water bath at 37° C. to allow the reaction of the enzyme to proceed.
# Meanwhile, as Reference Example, a capsaicin reagent (capsaicin content: 95% or more) manufactured by SIGMA was diluted with a 50 mM tris buffer such that the capsaicin concentration was the same as that (0.0028%) in Reference Example 2 and Reference Comparative Example 2. To this liquid, an acylase was added at a concentration of 0.05 u/ml. The mixture was shaken in a constant-temperature water bath at 37° C. in the same manner as in Reference Example 2 and Reference Comparative Example 2, to allow the reaction of the enzyme to proceed.
# To 2 ml of each sample in which the reaction of the enzyme was allowed to proceed for 0 (at the beginning of the shaking) minutes, 30 minutes, or 60 minutes, 3 ml of water was added, and thus the volume thereof was adjusted to 5 ml. Moreover, 1 ml of 2.5 N NaOH was added thereto, followed by heating in boiling water at 100° C. for 10 minutes. After the heating, 20 ml of methanol was added thereto. […] For the HPLC measurement, a fluorescence detector was used. […]
compound,measurement,value
"COc1cc(CNC(=O)CCCC/C=C/C(C)C)ccc1O [Reference Example, capsaicin]",ratio of capsaicin remaining after the enzymatic reaction for 60 minutes,2.0%
